pIC50: −log10 of the molar value. Calls of active or inactive are those of the source. The rule behind the calls is not given here.

Assay [1] deals with HT-29. Briefly: cells. As to conditions: Homo sapiens, HT-29, 72 h.
The test system of another assay is MKN-45. Kind of assay: cells. As to conditions: Homo sapiens, MKN-45, 72 h.
Another assay concerns SMMC-7721. Briefly: Antiproliferative activity against human SMMC7721 cells after 72 hrs by MTT assay. The format is functional, cell-based. The note with it: SMMC-7721, 72 h. On the technique in general: Formazan colour is commonly taken as a measure of viable cells.
For assay [2], the system named is NCI-H460. Briefly: Antiproliferative activity against human H460 cells after 72 hrs by MTT assay. It is filed as functional, cell-based. As to conditions: NCI-H460, 72 h.
Assay [3] concerns A549. Kind of assay: cells. The note with it: Homo sapiens, A549, 72 h.
Description: Antiproliferative activity against human A549 cells after 72 hrs by MTT assay
In assay [4] the test system is NCI-H460. Kind of assay: Potency index, ratio of CA-4 IC50 to compound IC50 for human H460 cells. It is filed as functional.
The test system of assay [5] is A549. Kind of assay: Potency index, ratio of CA-4 IC50 to compound IC50 for human A549 cells. The format is functional.
In assay [6] the test system is HT-29. Briefly: Potency index, ratio of crolibulin IC50 to compound IC50 for human HT-29 cells. It is filed as functional.
Assay [7] concerns A549. Briefly: Induction of microtubule depolymerization in human A549 cells assessed as scattered short microtubule fragment formation in cytoplasm at 30 nM after 24 hrs by DAPI staining based immunofluorescence microscopic method. It is filed as cell-based.
The subject of assay [8] is A549. Kind of assay: Potency index, ratio of crolibulin IC50 to compound IC50 for human A549 cells. It is filed as functional.

Description for MKN-45: Antiproliferative activity against human MKN45 cells after 72 hrs by MTT assay

Consider `COc1ccc(-c2cc(-c3ccc(F)cc3)nc(-n3cccc3CN(C)C)c2C#N)c(OC)c1OC`, for which the pIC50 in the assay on HT-29 [1] was 5.43; with MKN-45, 4.34; in the assay with SMMC-7721, 5.63; in the assay with NCI-H460 [2], 5.24; in the assay on A549 [3], 4.90.
The like results for `COc1cc(-c2cc(-c3ccc(F)cc3F)nc(-n3cccc3CNC(C)C)c2C#N)cc(OC)c1OC` were, in that order, 5.56, 4.24, 4.66, 5.36 and 4.80.
The like results for `CNCc1cccn1-c1nc(-c2ccc(F)cc2F)cc(-c2cc(OC)c(OC)c(OC)c2)c1C#N` were, in that order, 6.02, 5.20, 4.48, 5.53 and 5.02.
The like results for `COc1cc(-c2cc(-c3ccc(F)cc3F)nc(-n3cccc3CN3CCN(C)CC3)c2C#N)cc(OC)c1OC` were, in that order, 5.75, 4.40, 4.47, 5.34 and 5.33.
Take `COc1cc(-c2cc(-c3ccc(F)cc3F)nc(-n3cccc3CN(C)C)c2C#N)cc(OC)c1OC`: the pIC50 in the assay on HT-29 [1] was 5.60; in the assay on MKN-45 it was 5.14; in the assay with SMMC-7721, 4.93; in the assay with NCI-H460 [2], 5.21; with A549 [3], 4.97.
Consider `COc1cc(-c2cc(-c3ccc(F)cc3F)nc(-n3cccc3CN3CCC(C)CC3)c2C#N)cc(OC)c1OC`, for which the pIC50 in the assay on HT-29 [1] was 5.06; with MKN-45 it was 5.23; in the assay on SMMC-7721, 5.11; in the assay on NCI-H460 [2], 5.28; in the assay with A549 [3], 5.09.
The like results for `CCNCc1cccn1-c1nc(-c2ccc(F)cc2)cc(-c2cc(OC)c(OC)c(OC)c2)c1C#N` were, in that order, 5.92, 4.37, 4.88, 5.81 and 4.77.
The like results for `COc1cc(-c2cc(-c3ccc(F)cc3F)nc(-n3cccc3CN3CCOCC3)c2C#N)cc(OC)c1OC` were, in that order, 5.20, 4.40, 4.39, 4.90 and 4.96.
Take `COc1cc(-c2cc(-c3ccc(F)cc3)nc(-n3cccc3CN3CCN(C)CC3)c2C#N)cc(OC)c1OC`: the pIC50 in the assay on SMMC-7721 is 5.36; in the assay with NCI-H460 [2], 7.30.
As to `COc1cc(-c2cc(-c3ccc(F)cc3)nc(-n3cccc3CN3CCCC3)c2C#N)cc(OC)c1OC`, the negative logarithm of the IC50 (pIC50) with HT-29 [1] was 5.92; in the assay with MKN-45, 4.45; in the assay with SMMC-7721, 4.43; in the assay on NCI-H460 [2], 5.08; with A549 [3], 4.96.
The like results for `CCNCc1cccn1-c1nc(-c2ccc(F)cc2F)cc(-c2cc(OC)c(OC)c(OC)c2)c1C#N` were, in that order, 5.48, 4.88, 5.38, 5.54 and 5.39.
`COc1cc([C@H]2C(C#N)=C(N)Oc3c2ccc(N)c3N)cc(Br)c1OC` [CROLIBULIN]: the pIC50 in the assay on HT-29 [1] was 6.26; in the assay with MKN-45, 6.77; in the assay on NCI-H460 [2] it was 7.52; with A549 [3] it was 6.41.
Consider `CNCc1cccn1-c1nc(-c2ccc(F)cc2)cc(-c2cc(OC)c(OC)c(OC)c2)c1C#N`, for which the pIC50 in the assay with HT-29 [1] is 7.10; in the assay with MKN-45, 5.65; in the assay with SMMC-7721 it was 5.53; with NCI-H460 [2], 7.22; with A549 [3], 7.52. In addition, the “Ratio IC50” value was 1.3 - 15 with NCI-H460 [4], 1.3 - 15 in the assay with A549 [5], 6.9 - 13 in the assay on HT-29 [6] and 6.9 - 13 in the assay on A549 [8]. In addition, the outcome in the assay with A549 [7] was Active.
For `COc1cc(-c2cc(-c3ccc(F)cc3)nc(-n3cccc3)c2C#N)cc(OC)c1OC`, the pIC50 in the assay with HT-29 [1] is 5.03; with MKN-45, 4.23; with SMMC-7721, 4.21; in the assay on NCI-H460 [2], 4.67; with A549 [3] it was 4.36.
Turning to `COc1cc(-c2cc(-c3ccc(F)cc3)nc(-n3cccc3CN3CCOCC3)c2C#N)cc(OC)c1OC`, the negative logarithm of the IC50 (pIC50) with SMMC-7721 is 4.73; in the assay on NCI-H460 [2] it was 5.25.
With `COc1cc(-c2cc(-c3ccc(F)cc3F)nc(-n3cccc3CN3CCCC3)c2C#N)cc(OC)c1OC`, the pIC50 in the assay with HT-29 [1] is 5.23; in the assay with MKN-45, 4.37; in the assay on SMMC-7721, 4.39; in the assay on NCI-H460 [2], 5.37; with A549 [3], 4.96.
The like results for `COc1ccc(-c2cc(-c3ccc(F)cc3)nc(-n3cccc3CN3CCC(C)CC3)c2C#N)c(OC)c1OC` were, in that order, 5.86, 4.33, 4.32, 5.41 and 5.16.
In the case of `COc1cc(-c2cc(-c3ccc(F)cc3)nc(-n3cccc3CN3CCC(C)CC3)c2C#N)cc(OC)c1OC`, the pIC50 with SMMC-7721 was 5.23; with NCI-H460 [2] it was 7.15.
For the molecule `CNCc1cccn1-c1nc(-c2ccc(F)cc2)cc(-c2ccc(OC)c(OC)c2OC)c1C#N`, the pIC50 was 7.22 in the assay on HT-29 [1]; 4.42 in the assay on MKN-45; 4.92 in the assay on SMMC-7721; 6.59 in the assay with NCI-H460 [2]; 4.84 in the assay on A549 [3].
The like results for `COc1ccc(-c2cc(-c3ccc(F)cc3)nc(-n3cccc3CN3CCN(C)CC3)c2C#N)c(OC)c1OC` were, in that order, 7.22, 4.99, 4.74, 6.96 and 5.34.
The like results for `COc1cc(-c2cc(-c3ccc(F)cc3)nc(-n3cccc3CNC(C)C)c2C#N)cc(OC)c1OC` were, in that order, 7.00, 4.41, 4.46, 6.62 and 5.08.
In the case of `COc1ccc(/C=C\c2cc(OC)c(OC)c(OC)c2)cc1O` [COMBRETASTATIN A4], the pIC50 in the assay on HT-29 [1] was 7.22; with MKN-45, 6.68; in the assay with SMMC-7721 it was 5.76; in the assay on NCI-H460 [2], 7.10; with A549 [3], 6.35. Moreover, the result in the assay with A549 [7] was Active.
Consider `COc1cc(-c2cc(-c3ccc(F)cc3)nc(-n3cccc3CN(C)C)c2C#N)cc(OC)c1OC`, for which the pIC50 was 7.00 in the assay on HT-29 [1]; 4.98 in the assay on MKN-45; 4.68 in the assay on SMMC-7721; 6.51 in the assay with NCI-H460 [2]; 6.77 in the assay with A549 [3].

By pIC50 is commonly meant the IC50 on a negative log10 scale, so that one unit is a factor of ten.

For the origin of these results see ChEMBL document CHEMBL4145506, “Synthesis and biological evaluation of 4,6-diphenyl-2-(1H-pyrrol-1-yl)nicotinonitrile analogues of crolibulin and combretastatin A-4” (Eur J Med Chem, 2018).
